Holding throughout (format): ADME, organism-based
A short description of data set [1]: Clearance in Sprague-Dawley rat. The conditions noted are these: in vivo.
Data set [2] in a line: Volume of distribution at steady state in Sprague-Dawley rat at 2 mg/kg, iv. Set-up: dose 2 mg/kg, route intravenous. The following applies: in vivo, read-out: Vdss.
Data set [3] is described as follows: Half life in Sprague-Dawley rat at 2 mg/kg, iv. Also noted: dose 2 mg/kg, route intravenous. The following applies: in vivo.
Data set [4] in a line: Oral bioavailability in Sprague-Dawley rat at 10 mg/kg. The following applies: in vivo.
Data set [5] in a line: AUC (0 to infinity) in Sprague-Dawley rat at 10 mg/kg, po. The conditions noted are these: plasma. Set-up: time infinity, dose 10 mg/kg, route oral.

In data set [1], `OCC1CCN(c2nccnc2OC2CN(c3ccc4ccccc4n3)C2)CC1` gave a clearance of 61.3 mL/min/kg. In data set [2], the Vd was determined as 4.81 L/kg. The half-life in data set [3] is 6.42 h. In data set [4], this compound came in with a bioavailability of 18%.

In data set [1], `CC(=O)N1CCC(c2nccnc2OC2CN(c3ccc4ccccc4n3)C2)CC1` had a clearance of 16 mL/min/kg. In addition, in data set [2], the Vd turned out to be 1.55 L/kg. Also, the half-life in data set [3] was 3.64 h. In data set [5], the AUC(0-inf) came to 17.4 ng·h/mL. This compound also returned a bioavailability in data set [4] of 62%.

For `CC(=O)N1CCC(c2nc3ccccc3nc2OC2CN(c3ccc4ccccc4n3)C2)CC1`, the clearance in data set [1] was 9.5 mL/min/kg. The Vd in data set [2] stood at 1.55 L/kg. Further, the half-life in data set [3] is 2.35 h. This compound gave an AUC(0-inf) in data set [5] of 27.9 ng·h/mL. Also, in data set [4], the bioavailability was 57%.

As a reminder, the clearance is a measure of how efficiently the substance is removed, as volume per time. A lower clearance goes with inefficient removal. The half-life is how long it takes for the measured level to halve. Lower therefore signals rapid decline. As usually defined, the bioavailability is dose-corrected exposure relative to a reference, in per cent. A word on the AUC(0-inf): it is the area under the concentration-time curve extrapolated to infinity. Low values mean less exposure, high ones more exposure.

(Values after ChEMBL document CHEMBL3351491, “Synthesis and preliminary biological evaluation of potent and selective 2-(3-alkoxy-1-azetidinyl) quinolines as novel PDE10A inhibitors with improved solubility” (Bioorg Med Chem, 2014).)
